Assay results from PubChem BioAssay AID248 (DTP/NCI, 2004).
“And” between values parts separate entries of the source, which are not always exact repeats. Equal values may be shown once. Toxic doses and inconclusive results are not listed.

Tested on: L1210 leukemia ip in BDF1 mice, survival T/C
Assay: NCI In Vivo Anticancer Drug Screen. Data for tumor model L1210 Leukemia (intraperitoneal) in B6D2F1 (BDF1) mice
Conditions: endpoint: mean survival time, higher = longer survival
How it was run: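 Read-out is survival time, reported as the treated-group measurement over the vehicle-control measurement.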

[1] = dose: 100.0 mg/kg/injection, schedule: Q01DX009 (ip), vehicle: Klucel (hydroxypropylcellulose) (HPC)
[2] = dose: 200.0 mg/kg/injection, schedule: Q01DX009 (ip), vehicle: Klucel (hydroxypropylcellulose) (HPC)
[3] = dose: 400.0 mg/kg/injection, schedule: Q01DX009 (ip), vehicle: Klucel (hydroxypropylcellulose) (HPC)
[4] = dose: 100.0 mg/kg/injection, schedule: Q04DX003 (ip), vehicle: Klucel (hydroxypropylcellulose) (HPC)
[5] = dose: 200.0 mg/kg/injection, schedule: Q04DX003 (ip), vehicle: Klucel (hydroxypropylcellulose) (HPC)
[6] = dose: 400.0 mg/kg/injection, schedule: Q04DX003 (ip), vehicle: Klucel (hydroxypropylcellulose) (HPC)
[7] = dose: 100.0 mg/kg/injection, schedule: Q01DX009 (ip), vehicle: saline with Tween-80
[8] = dose: 200.0 mg/kg/injection, schedule: Q01DX009 (ip), vehicle: saline with Tween-80
[9] = dose: 400.0 mg/kg/injection, schedule: Q01DX009 (ip), vehicle: saline with Tween-80
[10] = dose: 100.0 mg/kg/injection, schedule: Q01DX001 (ip), vehicle: saline
[11] = dose: 200.0 mg/kg/injection, schedule: Q01DX001 (ip), vehicle: saline
[12] = dose: 100.0 mg/kg/injection, schedule: Q04DX003 (ip), vehicle: other
[13] = dose: 200.0 mg/kg/injection, schedule: Q04DX003 (ip), vehicle: other
[14] = dose: 400.0 mg/kg/injection, schedule: Q04DX003 (ip), vehicle: other
[15] = dose: 100.0 mg/kg/injection, schedule: Q04DX003 (ip), vehicle: saline with Tween-80
[16] = dose: 200.0 mg/kg/injection, schedule: Q04DX003 (ip), vehicle: saline with Tween-80
[17] = dose: 400.0 mg/kg/injection, schedule: Q04DX003 (ip), vehicle: saline with Tween-80

For CC(=O)Nc1ccn(C2OC(COC(C)=O)C(OC(C)=O)C2OC(C)=O)c(=O)n1 (stereo not drawn), the T/C (dose: 6.3 mg/kg/injection, schedule: Q## X090 (ip), vehicle: carboxymethylcellulose (CMC)) was 94 % of control, the T/C (dose: 12.5 mg/kg/injection, schedule: Q## X090 (ip), vehicle: carboxymethylcellulose (CMC)) was 102 % of control and the T/C (dose: 18.0 mg/kg/injection, schedule: Q03HX024 (ip), vehicle: other) was 114 % of control. The T/C (dose: 25.0 mg/kg/injection, schedule: Q## X090 (ip), vehicle: carboxymethylcellulose (CMC)) was 97 % of control, the T/C (dose: 50.0 mg/kg/injection, schedule: Q## X090 (ip), vehicle: carboxymethylcellulose (CMC)) was 102 % of control and the T/C (dose: 53.0 mg/kg/injection, schedule: Q01DX Z (ip), vehicle: carboxymethylcellulose (CMC)) was 106 % of control. For the same compound, the T/C (dose: 75.0 mg/kg/injection, schedule: Q03HX024 (ip), vehicle: other) was 168 % of control, the T/C (dose: 79.0 mg/kg/injection, schedule: Q01DX Z (ip), vehicle: carboxymethylcellulose (CMC)) was 107 % of control and the T/C (dose: 119.0 mg/kg/injection, schedule: Q01DX Z (ip), vehicle: carboxymethylcellulose (CMC)) was 109 % of control. The T/C (dose: 125.0 mg/kg/injection, schedule: Q01DX009 (oral), vehicle: carboxymethylcellulose (CMC)) was 115 % of control, the T/C (dose: 125.0 mg/kg/injection, schedule: Q03HX024 (oral), vehicle: carboxymethylcellulose (CMC)) was 111 % of control and the T/C (dose: 125.0 mg/kg/injection, schedule: Q03HX024 (oral), vehicle: water) was 123 % of control. The T/C (dose: 150.0 mg/kg/injection, schedule: Q03HX024 (ip), vehicle: other) was 195 % of control, the T/C (dose: 150.0 mg/kg/injection, schedule: Q04DX003 (ip), vehicle: other) was 108 % of control and the T/C (dose: 178.0 mg/kg/injection, schedule: Q01DX Z (ip), vehicle: carboxymethylcellulose (CMC)) was 119 % of control. The T/C (dose: 178.0 mg/kg/injection, schedule: Q01DX Z (ip), vehicle: saline) was 116 % of control, the T/C (dose: 200.0 mg/kg/injection, schedule: Q01DX001 (ip), vehicle: carboxymethylcellulose (CMC)) was 101 % of control and the T/C (dose: 200.0 mg/kg/injection, schedule: Q01DX010 (oral), vehicle: carboxymethylcellulose (CMC)) was 112 % of control. The T/C (dose: 250.0 mg/kg/injection, schedule: Q03HX024 (oral), vehicle: carboxymethylcellulose (CMC)) was 113 % of control, the T/C (dose: 250.0 mg/kg/injection, schedule: Q03HX024 (oral), vehicle: water) was 121 % of control and the T/C (dose: 300.0 mg/kg/injection, schedule: Q03HX024 (ip), vehicle: other) was 228 % of control. For the same compound, the T/C (dose: 300.0 mg/kg/injection, schedule: Q04DX003 (ip), vehicle: other) was 115 % of control, the T/C (dose: 400.0 mg/kg/injection, schedule: Q01DX001 (ip), vehicle: carboxymethylcellulose (CMC)) was 103 % of control and the T/C (dose: 400.0 mg/kg/injection, schedule: Q01DX Z (ip), vehicle: saline) was 163 % of control. For the same compound, the T/C (dose: 500.0 mg/kg/injection, schedule: Q03HX024 (oral), vehicle: carboxymethylcellulose (CMC)) was 124 % of control, the T/C (dose: 600.0 mg/kg/injection, schedule: Q01DX009 (ip), vehicle: other) was 177 % of control and 184 % of control and the T/C (dose: 600.0 mg/kg/injection, schedule: Q01DX Z (ip), vehicle: carboxymethylcellulose (CMC)) was 124 % of control and 246 % of control. For the same compound, the T/C (dose: 600.0 mg/kg/injection, schedule: Q01DX Z (ip), vehicle: saline) was 166 % of control, the T/C (dose: 800.0 mg/kg/injection, schedule: Q01DX001 (ip), vehicle: carboxymethylcellulose (CMC)) was 101 % of control and the T/C (dose: 900.0 mg/kg/injection, schedule: Q01DX Z (ip), vehicle: carboxymethylcellulose (CMC)) was 175 % of control. For the same compound, the T/C (dose: 1000.0 mg/kg/injection, schedule: Q03HX024 (oral), vehicle: carboxymethylcellulose (CMC)) was 122 % of control, the T/C (dose: 1000.0 mg/kg/injection, schedule: Q03HX024 (oral), vehicle: water) was 208 % of control and the T/C (dose: 1200.0 mg/kg/injection, schedule: Q01DX009 (ip), vehicle: other) was 213 % of control and 228 % of control. The T/C (dose: 1200.0 mg/kg/injection, schedule: Q04DX003 (ip), vehicle: other) was 159 % of control, the T/C (dose: 1350.0 mg/kg/injection, schedule: Q01DX Z (ip), vehicle: carboxymethylcellulose (CMC)) was 295 % of control and the T/C (dose: 1600.0 mg/kg/injection, schedule: Q01DX001 (ip), vehicle: carboxymethylcellulose (CMC)) was 124 % of control. The T/C (dose: 1600.0 mg/kg/injection, schedule: Q01DX010 (oral), vehicle: carboxymethylcellulose (CMC)) was 214 % of control, the T/C (dose: 2000.0 mg/kg/injection, schedule: Q03HX024 (oral), vehicle: water) was 226 % of control and the T/C (dose: 2400.0 mg/kg/injection, schedule: Q01DX009 (ip), vehicle: other) was 112 % of control. The T/C (dose: 2400.0 mg/kg/injection, schedule: Q04DX003 (ip), vehicle: other) was 214 % of control.
In the case of O=C(Nc1ccccc1F)OCCOc1ccc(-c2ccccc2)cc1, the T/C [1] was 96 % of control, the T/C [2] was 95 % of control and the T/C [3] was 98 % of control.
In the case of O=C(Nc1ccc([N+](=O)[O-])cc1Cl)Oc1ccc2ccccc2c1, the T/C [1] was 92 % of control, the T/C [4] was 100 % of control and the T/C [2] was 87 % of control. For the same compound, the T/C [5] was 97 % of control and the T/C [6] was 100 % of control.
With CC(=O)c1cccc(NC(=O)N2CCCCC2C)c1 (stereo not drawn) the T/C [1] was 111 % of control, the T/C [2] was 112 % of control and the T/C [3] was 103 % of control.
For Cc1ccc(NC(=O)c2ccccc2Cl)cc1C, the T/C [7] was 90 % of control, the T/C [8] was 97 % of control and the T/C [9] was 104 % of control.
In the case of CCCCOC(=O)c1[nH]cnc1N, the T/C [10] was 114 % of control and the T/C [11] was 110 % of control.
In the case of O=C(/C=C\c1ccc(O)cc1)c1ccccc1, the T/C [1] was 97 % of control, the T/C [4] was 89 % of control and the T/C [2] was 106 % of control. For the same compound, the T/C [5] was 96 % of control and the T/C [3] was 101 % of control.
With COc1cccc(C2CCN(C)C2)c1 (stereo not drawn) the T/C (dose: 6.25 mg/kg/injection, schedule: Q01DX009 (ip), vehicle: Klucel (hydroxypropylcellulose) (HPC)) was 110 % of control, the T/C (dose: 12.5 mg/kg/injection, schedule: Q01DX009 (ip), vehicle: Klucel (hydroxypropylcellulose) (HPC)) was 108 % of control and the T/C (dose: 25.0 mg/kg/injection, schedule: Q01DX009 (ip), vehicle: Klucel (hydroxypropylcellulose) (HPC)) was 103 % of control. The T/C [4] was 105 % of control and the T/C [5] was 103 % of control.
O=C(CC(O)(C(F)(F)F)C(F)(F)F)c1ccc(Br)cc1 was tested, and the T/C [12] was 98 % of control, the T/C [13] was 106 % of control and the T/C [14] was 93 % of control.
In the case of CNC(=O)Oc1cccc(NC(=O)C2CC2)c1, the T/C [15] was 94 % of control, the T/C [16] was 94 % of control and the T/C [17] was 96 % of control.
COc1ccc(C=NC(C)(C)CO)cc1 was tested, and the T/C (dose: 100.0 mg/kg/injection, schedule: Q01DX001 (ip), vehicle: steriod suspending solution) was 114 % of control, the T/C (dose: 200.0 mg/kg/injection, schedule: Q01DX001 (ip), vehicle: steriod suspending solution) was 90 % of control and the T/C (dose: 400.0 mg/kg/injection, schedule: Q01DX001 (ip), vehicle: steriod suspending solution) was 97 % of control.
In the case of CN1CCC(c2ccccc2)c2ccccc21 (stereo not drawn), the T/C [12] was 95 % of control, the T/C [13] was 120 % of control and the T/C [14] was 98 % of control.
With Cc1cc(C(C)(C)c2ccc(O)c(C)c2)ccc1O the T/C (dose: 50.0 mg/kg/injection, schedule: Q01DX009 (ip), vehicle: saline) was 97 % of control, the T/C (dose: 100.0 mg/kg/injection, schedule: Q01DX009 (ip), vehicle: saline) was 97 % of control and the T/C [15] was 100 % of control. For the same compound, the T/C (dose: 200.0 mg/kg/injection, schedule: Q01DX009 (ip), vehicle: saline) was 94 % of control, the T/C [16] was 102 % of control and the T/C [17] was 107 % of control.
With c1ccc(C2CCCCO2)cc1 (stereo not drawn) the T/C [7] was 94 % of control, the T/C [8] was 100 % of control and the T/C [9] was 88 % of control.
C[Si](C)(C)Oc1ccccc1[Si](C)(C)c1ccccc1 was tested, and the T/C [4] was 101 % of control, the T/C [5] was 98 % of control and the T/C [6] was 102 % of control.
For CC1(C)OC(N)=C(C(N)=O)C1c1ccc(Cl)cc1 (stereo not drawn), the T/C [10] was 97 % of control, the T/C [11] was 95 % of control and the T/C (dose: 400.0 mg/kg/injection, schedule: Q01DX001 (ip), vehicle: saline) was 95 % of control.
